Experimental data as given in PMC10287695, “Non-covalent inhibitors of thioredoxin glutathione reductase with schistosomicidal activity in vivo” (Nature Communications, 2023).
“And” between values parts separate entries of the source, which are not always exact repeats. Identical values can stand only once. Like-named read-outs stand apart in the source and are kept apart here.

Experiments:
Format in all cases: biochemical
TGR [1] = target: T1, TGR (Schistosoma mansoni, UniProt Q962Y6); assay: Reversibility by jump dilution; details: for Inhibitor (rate), 0 min / % Activity, 0 min: [0, D0]: 15 min preincubation inhibitor + TGR + NADPH, diluted 1:100, then activity determined immediately; for Inhibitor (rate), 0 min / Inhibitor (rate), 60 min / Inhibitor (rate), -15: raw rate; for % Activity, 0 min / % Activity, 60 min / % Activity, -15: relative to DMSO; for Inhibitor (rate), 60 min / % Activity, 60 min: [60, D60]: 15 min preincubation inhibitor + TGR + NADPH, diluted 1:100, then activity determined after 60 min; for Inhibitor (rate), -15 / % Activity, -15: [-15]: 15 min preincubation inhibitor + TGR + NADPH, then activity determined, replicates; for % Activity (ID list) / % Inhibition (ID list): before dilution (-15)
T1 construct: made in house
T1 sequence (Q962Y6 1-598): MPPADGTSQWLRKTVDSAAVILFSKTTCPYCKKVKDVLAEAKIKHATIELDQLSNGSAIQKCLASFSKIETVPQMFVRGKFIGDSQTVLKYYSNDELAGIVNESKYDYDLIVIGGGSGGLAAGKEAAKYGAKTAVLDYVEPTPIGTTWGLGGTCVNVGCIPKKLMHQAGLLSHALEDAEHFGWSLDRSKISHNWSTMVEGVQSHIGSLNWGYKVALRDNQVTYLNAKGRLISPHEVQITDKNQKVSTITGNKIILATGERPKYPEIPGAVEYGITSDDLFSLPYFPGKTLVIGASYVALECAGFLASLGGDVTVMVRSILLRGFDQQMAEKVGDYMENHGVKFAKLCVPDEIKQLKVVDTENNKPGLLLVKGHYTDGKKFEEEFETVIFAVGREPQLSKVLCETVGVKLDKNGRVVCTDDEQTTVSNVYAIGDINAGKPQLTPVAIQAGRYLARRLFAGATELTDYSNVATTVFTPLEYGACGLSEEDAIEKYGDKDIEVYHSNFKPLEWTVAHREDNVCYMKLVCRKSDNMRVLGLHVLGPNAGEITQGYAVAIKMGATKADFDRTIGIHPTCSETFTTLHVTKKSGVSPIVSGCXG
Protocol: A reaction of 370 nM TGR, 100 µM NADPH, and 250 µM inhibitor was incubated for 15 min at room temperature. A 100x dilution of the reaction was made and the activity was determined immediately and after 60 min.

PfTrxR = target: T2, PfTrxR (Plasmodium falciparum, UniProt Q25861); assay: P. falciparum TrxR enzyme inhibition
T2 construct: 6-His (N); made in house; host or cells: E. coli BL21 (DE3)
T2 sequence (Q25861 1-541): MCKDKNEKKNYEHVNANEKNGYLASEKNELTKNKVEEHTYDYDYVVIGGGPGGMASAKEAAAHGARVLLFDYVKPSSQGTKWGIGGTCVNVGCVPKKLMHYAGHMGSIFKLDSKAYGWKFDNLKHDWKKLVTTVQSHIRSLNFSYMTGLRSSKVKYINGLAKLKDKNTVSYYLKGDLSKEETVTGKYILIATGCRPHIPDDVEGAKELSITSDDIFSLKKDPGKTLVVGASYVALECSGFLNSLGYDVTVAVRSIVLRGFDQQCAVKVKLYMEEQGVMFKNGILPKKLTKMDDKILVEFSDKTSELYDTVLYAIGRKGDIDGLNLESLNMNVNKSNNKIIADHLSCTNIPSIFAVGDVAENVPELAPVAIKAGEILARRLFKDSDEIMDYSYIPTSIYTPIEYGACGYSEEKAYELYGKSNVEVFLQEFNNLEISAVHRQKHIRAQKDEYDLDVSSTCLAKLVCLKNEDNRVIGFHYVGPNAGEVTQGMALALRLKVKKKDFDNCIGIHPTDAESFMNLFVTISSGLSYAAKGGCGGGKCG
Protocol: Recombinant TGR, human TrxR1, B. malayi (Bm)TrxR and human GR proteins were expressed and purified as described[20],[69],[79]. The codon optimized sequence for P. falciparum (PfTrxR, https://www.ncbi.nlm.nih.gov/protein/CAA60574.1/) with an N-terminal 6-His tag was synthesized and inserted into pET15b (GenScript) and expressed in BL21 (DE3) cells and purified as described for human GR[20]. TGR and TrxR enzyme inhibition assays were performed in triplicate at 25 °C as described[20] in 0.1 M potassium phosphate (pH 7.4), 10 mM EDTA, 100 µM NADPH and 0.01% Tween-20. TGR, human TrxR1 and BmTrxR (all at 4 nM) and PfTrxR (50 nM) were preincubated with the compounds for 15 min. The reaction was started with addition of an equal volume of DTNB (6 mM) and NADPH (100 µM) and the increase in A412 during the first 3 min was recorded. […] The reaction was preincubated for 15 min. Activity was initiated with the addition of 1 mM GSSG and 100 μM NADPH and initial rates of NADPH oxidation were monitored at 340 nm. The reactions were done in triplicate. The IC50 was calculated in GraphPad Prism.

BmTrxR = BmTrxR (Brugia malayi, UniProt A0A1I9G0T9); assay: B. malayi TrxR enzyme inhibition
Sequence of BmTrxR (A0A1I9G0T9 entry or part of it, added parts left off): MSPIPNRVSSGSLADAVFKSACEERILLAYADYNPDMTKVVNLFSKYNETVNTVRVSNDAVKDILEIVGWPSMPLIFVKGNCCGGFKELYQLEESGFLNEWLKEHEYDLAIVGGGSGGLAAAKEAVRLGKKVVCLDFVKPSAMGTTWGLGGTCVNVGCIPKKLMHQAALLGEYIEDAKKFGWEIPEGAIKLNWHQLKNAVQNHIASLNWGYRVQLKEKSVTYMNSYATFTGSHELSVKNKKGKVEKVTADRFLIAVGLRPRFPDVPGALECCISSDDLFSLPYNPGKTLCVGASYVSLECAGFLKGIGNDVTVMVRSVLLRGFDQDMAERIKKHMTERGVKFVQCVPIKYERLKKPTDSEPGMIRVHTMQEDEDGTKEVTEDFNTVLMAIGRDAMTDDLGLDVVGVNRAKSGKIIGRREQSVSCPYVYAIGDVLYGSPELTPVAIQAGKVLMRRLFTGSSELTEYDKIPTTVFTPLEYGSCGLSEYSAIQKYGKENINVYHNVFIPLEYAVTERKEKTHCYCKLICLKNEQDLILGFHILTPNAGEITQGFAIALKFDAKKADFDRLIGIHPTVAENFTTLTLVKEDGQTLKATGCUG
Protocol: Recombinant TGR, human TrxR1, B. malayi (Bm)TrxR and human GR proteins were expressed and purified as described[20],[69],[79]. The codon optimized sequence for P. falciparum (PfTrxR, https://www.ncbi.nlm.nih.gov/protein/CAA60574.1/) with an N-terminal 6-His tag was synthesized and inserted into pET15b (GenScript) and expressed in BL21 (DE3) cells and purified as described for human GR[20]. […] The reaction was started with addition of an equal volume of DTNB (6 mM) and NADPH (100 µM) and the increase in A412 during the first 3 min was recorded. […] Activity was initiated with the addition of 1 mM GSSG and 100 μM NADPH and initial rates of NADPH oxidation were monitored at 340 nm. The reactions were done in triplicate. The IC50 was calculated in GraphPad Prism.

TGR [2] = target: T1, TGR; assay: Time dependence of inhibition; design: avg % inhib, 0.5 hr / avg % inhib, 1 hr / avg % inhib, 2 hr / avg % inhib, 3 hr / avg % inhib, 6 hr / avg % inhib, 24 hr: tested at 50 µM; details: panel d Time Dependence; for avg % inhib, 0.5 hr / avg % inhib, 1 hr / avg % inhib, 2 hr / avg % inhib, 3 hr / avg % inhib, 6 hr / avg % inhib, 24 hr: average; for % inhib, 0.5 hr / % inhib, 1 hr / % inhib, 2 hr / % inhib, 3 hr / % inhib, 6 hr / % inhib, 24 hr: replicates
Protocol: TGR was incubated at room temperature (up to 6 h) and at 4 °C for 6 to 24 h with 50 µM inhibitor and 100 µM NADPH for the indicated times. Then DTNB (3 mM) and NADPH (100 µM) were added, and the reaction was monitored at A412 for 5 min. The assay was done in triplicate.

[3] = D0: diluted 1:100, activity determined immediately, list for plotting
[4] = D60: diluted 1:100, activity determined after 60 min, list for plotting
[5] = 50 µM, the highest concentration tested

Row | SMILES | % Inhibition (ID list), D60 (TGR [1]; [4]) | Inhibitor (rate), 0 min (TGR [1]) | % Activity, 0 min (TGR [1]) | Inhibitor (rate), 60 min (TGR [1]) | % Activity, 60 min (TGR [1]) | Inhibitor (rate), -15 (TGR [1]) | % Activity, -15 (TGR [1]) | % Activity (ID list) (TGR [1]; list for plotting) | % Inhibition (ID list) (TGR [1]; list for plotting) | rate, 0.5 hr (TGR [2]) | avg % inhib, 0.5 hr (TGR [2]) | % inhib, 0.5 hr (TGR [2]) | rate, 1 hr (TGR [2]) | avg % inhib, 1 hr (TGR [2]) | % inhib, 1 hr (TGR [2]) | rate, 2 hr (TGR [2]) | avg % inhib, 2 hr (TGR [2]) | % inhib, 2 hr (TGR [2]) | rate, 3 hr (TGR [2]) | avg % inhib, 3 hr (TGR [2]) | further results
1 | Cc1oc(-c2ccc3c(c2)OCO3)nc1CN[C@@H]1C[C@@H]2C[C@H]([C@H]1C)C2(C)C [Compound 1] | -11.2% and -8.3% and -14.2% | 0.04476 and 0.04528 and 0.04727 | 96.9881% and 96.3404% and 109.043% | 0.04331 and 0.04649 and 0.04721 | 100.185% and 104.308% and 101.157% | 0.02911 and 0.02756 and 0.02942 | 84.4748% and 76.3012% and 82.9433% | 84.5% and 76.3% and 82.9% | 15.5% and 23.7% and 17.1% | 0.0552 and 0.05671 and 0.05782 | -1.077% | 0.01811% and -0.5318% and -2.718% | 0.04988 and 0.05076 and 0.05122 | 1.283% | 2.919% and -0.8544% and 1.783% | 0.046 and 0.04511 and 0.04817 | 0.9089% | -0.9879% and 3.652% and 0.06224% | 0.03818 and 0.03843 and 0.03937 | 4.332% | % Inhibition (ID list), D0 (TGR [1]; [3]): -3.0% and -6.3% and -11.0%; PfTrxR % inhibition at 50 µM (PfTrxR; [5]): n.i.; inhibition at 10 µM (PfTrxR; PfTrxR, 10 µM compound, mean of 3 replicates, read-out: % inhibition): -2.06%; inhibition at 25 µM (PfTrxR; PfTrxR, 25 µM compound, mean of 3 replicates, read-out: % inhibition): -2.16%; inhibition at 50 µM (PfTrxR; PfTrxR, 50 µM compound, mean of 3 replicates, read-out: % inhibition): -1.29%; IC50 (BmTrxR): 37 ± 3.04 µM; inhibition at 10 µM (BmTrxR; BmTrxR, 10 µM compound, mean of 3 replicates, read-out: % inhibition): 22.5%; inhibition at 25 µM (BmTrxR; BmTrxR, 25 µM compound, mean of 3 replicates, read-out: % inhibition): 40.6%; inhibition at 50 µM (BmTrxR; BmTrxR, 50 µM compound, mean of 3 replicates, read-out: % inhibition): 77.5%; % inhib, 3 hr (TGR [2]): 4.359% and 4.498% and 4.139%; rate, 6 hr (TGR [2]): 0.02323 and 0.02106 and 0.02443; avg % inhib, 6 hr (TGR [2]): 12.8202%; % inhib, 6 hr (TGR [2]): 11.8406% and 18.1182% and 8.502%; rate, 24 hr (TGR [2]): 0.0142 and 0.01351 and 0.01414; avg % inhib, 24 hr (TGR [2]): 28.9728%; % inhib, 24 hr (TGR [2]): 24.2263% and 31.8365% and 30.8557%
2 | Cc1oc(-c2ccccc2)nc1CN[C@@H]1C[C@@H]2C[C@H]([C@H]1C)C2(C)C [Compound 3] | -12.2% and -2.4% and -4.0% | 0.04937 and 0.04787 and 0.05217 | 106.977% and 101.851% and 120.346% | 0.04847 and 0.05055 and 0.05088 | 112.121% and 113.417% and 109.021% | 0.01322 and 0.01449 | 38.3633% and 40.1163% | 38.4% and 40.1% | 61.6367% and 59.8837% and 55% | 0.04131 and 0.04323 and 0.04147 | 24.9564% | 25.1766% and 23.3647% and 26.3279% | 0.03461 and 0.03399 and 0.03516 | 32.5613% | 32.6392% and 32.4657% and 32.5791% | 0.02942 and 0.0272 and 0.02813 | 39.6519% | 35.4116% and 41.9052% and 41.639% | 0.02162 and 0.0222 and 0.02273 | 45.1094% | % Activity (ID list), D0 (TGR [1]; [3]): 107.0% and 101.9% and 120.0%; % Activity (ID list), D60 (TGR [1]; [4]): 112.2%; inhibition at 50 µM (PfTrxR; read-out: PfTrxR % inhibition at 50 µM): 12%; inhibition at 10 µM (BmTrxR): -15.1%; inhibition at 25 µM (BmTrxR): -10.6%; inhibition at 50 µM (BmTrxR): -20.9%; BmTrxR % inhibition at 50 µM (BmTrxR; [5]): n.i.; % inhib, 3 hr (TGR [2]): 45.8417% and 44.831% and 44.6555%; rate, 6 hr (TGR [2]): 0.01203 and 0.009487 and 0.01329; avg % inhib, 6 hr (TGR [2]): 55.8948%; % inhib, 6 hr (TGR [2]): 54.3454% and 63.1143% and 50.2247%; rate, 24 hr (TGR [2]): 0.008207 and 0.008188 and 0.0092; avg % inhib, 24 hr (TGR [2]): 56.6355%; % inhib, 24 hr (TGR [2]): 56.206% and 58.6882% and 55.0122%
